From patent US8461160B2, “Dihydropyrimidinones” (Hoffmann-La Roche, Inc., priority 2009, dated 2013)

Target: T1, BACE2 (Homo sapiens, UniProt Q9Y5Z0)
T1 construct: BACE2 enzyme ectodomain (derived from plasmid “pET17b-T7-hu proBACE2”) was prepared as described in Ostermann et al; T7 tag (N); made in house
T1 sequence (Q9Y5Z0 21-473 limits assumed): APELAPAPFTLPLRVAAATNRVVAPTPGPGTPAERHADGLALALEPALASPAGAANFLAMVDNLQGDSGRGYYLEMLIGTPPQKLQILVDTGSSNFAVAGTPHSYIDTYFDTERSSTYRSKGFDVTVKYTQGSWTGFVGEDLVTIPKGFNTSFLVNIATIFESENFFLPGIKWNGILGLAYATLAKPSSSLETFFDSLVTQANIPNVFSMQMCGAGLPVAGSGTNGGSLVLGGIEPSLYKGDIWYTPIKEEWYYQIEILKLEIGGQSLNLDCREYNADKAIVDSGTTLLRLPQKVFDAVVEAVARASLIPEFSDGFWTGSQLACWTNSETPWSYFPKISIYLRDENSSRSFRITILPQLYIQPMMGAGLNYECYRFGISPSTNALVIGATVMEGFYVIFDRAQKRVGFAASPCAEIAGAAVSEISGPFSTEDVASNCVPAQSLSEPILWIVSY
Assay: Fluorescent-peptide cleavage assay for BACE2 inhibition
Format: biochemical
Conditions: BACE2 enzyme ectodomain, fluorescent peptide WS EVNLD AEFRC-MR121, assay buffer pH 4.5, room temperature
Procedure, shortened: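 Pro-enzyme BACE2 was activated at 80 nM for 1 h at room temperature in 100 mM Na-acetate, 20 mM EDTA, 0.05% BSA, pH 4.5, then preincubated 10 min with compound. IC50 from sigmoidal dose-response fit.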

SMILES | IC50
CCC[C@@]1(c2cccc(NC(=O)c3ccn(C)n3)c2)CC(=O)N(C)C(N)=N1 [Example 89, 1-Methyl-1H-pyrazole-3-carboxylic acid [3-((S)-2-amino-1-methyl-6-oxo-4-propyl-1,4,5,6-tetrahydro-pyrimidin-4-yl)-phenyl]-amide] | 4750 nM
CN1C(=O)C[C@@](C)(c2ccc(F)c(NC(=O)c3ccc(Cl)cn3)c2)N=C1N [Example 125, 5-Chloro-pyridine-2-carboxylic acid [5-((S)-2-amino-1,4-dimethyl-6-oxo-1,4,5,6-tetrahydro-pyrimidin-4-yl)-2-fluoro-phenyl]amide] | 310 nM
CN1C(=O)C[C@@](C)(c2cccc(NC(=O)c3ccc(=O)n(C)n3)c2)N=C1N [Example 21, 1-Methyl-6-oxo-1,6-dihydro-pyridazine-3-carboxylic acid [3-((S)-2-amino-1,4-dimethyl-6-oxo-1,4,5,6-tetrahydro-pyrimidin-4-yl)-phenyl]amide] | 4200 nM
CN1C(=O)C[C@@](C)(c2cncc(NC(=O)c3ccc(Cl)cn3)c2)N=C1N [Example 52, 5-Chloro-pyridine-2-carboxylic acid [5-((S)-2-amino-1,4-dimethyl-6-oxo-1,4,5,6-tetrahydro-pyrimidin-4-yl)-pyridin-3-yl]-amide] | 11 nM
Cc1cc(Cl)cnc1C(=O)Nc1ccc(F)c([C@@]2(C)N=C(N)N(C)C(=O)C2(C)C)c1 [Example 99, 5-Chloro-3-methyl-pyridine-2-carboxylic acid [3-((S)-2-amino-1,4,5,5-tetramethyl-6-oxo-1,4,5,6-tetrahydro-pyrimidin-4-yl)-4-fluoro-phenyl]amide] | 13 nM
CN1C(=O)C[C@@](C)(c2cccc(NC(=O)c3ccc(-n4ccc(C(F)(F)F)n4)cn3)c2)N=C1N [Example 76, 5-(3-Trifluoromethyl-pyrazol-1-yl)-pyridine-2-carboxylic acid [3-((S)-2-amino-1,4-dimethyl-6-oxo-1,4,5,6-tetrahydro-pyrimidin-4-yl)-phenyl]-amide] | 300 nM
CN1C(=O)C(C)(C)[C@@](C)(c2cc(NC(=O)c3ncoc3-c3ccccc3)ccc2F)N=C1N [Example 109, 5-Phenyl-oxazole-4-carboxylic acid [3-((S)-2-amino-1,4,5,5-tetramethyl-6-oxo-1,4,5,6-tetrahydro-pyrimidin-4-yl)-4-fluoro-phenyl]amide] | 170 nM
CN1C(=O)C[C@@](C)(c2cc(NC(=O)c3ccccn3)ccc2F)N=C1N [Example 47, Pyridine-2-carboxylic acid [3-((S)-2-amino-1,4-dimethyl-6-oxo-1,4,5,6-tetrahydro-pyrimidin-4-yl)-4-fluoro-phenyl]amide] | 8 nM
C[C@H]1C(=O)N(C)C(N)=N[C@]1(C)c1cccc(NC(=O)c2ccc(Cl)cn2)c1 [Example 91, 5-Chloro-pyridine-2-carboxylic acid [3-((4S,5R)-2-amino-1,4,5-trimethyl-6-oxo-1,4,5,6-tetrahydro-pyrimidin-4-yl)-phenyl]amide] | 17 nM
CN1C(=O)C(C)(C)[C@@](C)(c2cc(NC(=O)c3cn(C)cn3)ccc2F)N=C1N [Example 112, 1-Methyl-1H-imidazole-4-carboxylic acid [3-((S)-2-amino-1,4,5,5-tetramethyl-6-oxo-1,4,5,6-tetrahydro-pyrimidin-4-yl)-4-fluoro-phenyl]amide] | 1260 nM
CC[C@@]1(c2cccc(NC(=O)c3ccc(C(F)(F)F)cn3)c2)CC(=O)N(C)C(N)=N1 [Example 86, 5-Trifluoromethyl-pyridine-2-carboxylic acid [3-((S)-2-amino-4-ethyl-1-methyl-6-oxo-1,4,5,6-tetrahydro-pyrimidin-4-yl)-phenyl]amide] | 250 nM
CN1C(=O)C[C@@](C)(c2cccc(NC(=O)c3cnc(Cl)cn3)c2)N=C1N [Example 25, 5-Chloro-pyrazine-2-carboxylic acid [3-((S)-2-amino-1,4-dimethyl-6-oxo-1,4,5,6-tetrahydro-pyrimidin-4-yl)-phenyl]-amide] | 10 nM
CN1C(=O)C[C@]2(CCc3ccc(NC(=O)c4ccc(OCC(F)(F)F)cn4)cc32)N=C1N [Example 129, N-[(1S)-2′-amino-1′-methyl-6′-oxo-2,3,5′,6′-tetrahydro-1′H-spiro[indene-1,4′-pyrimidin]-6-yl]-5-(2,2,2-trifluoro-ethoxy)-pyridine-2-carboxamide] | 220 nM
CC[C@@]1(c2cccc(NC(=O)c3ccc(Cl)s3)c2)CC(=O)N(C)C(N)=N1 [Example 41, 5-Chloro-thiophene-2-carboxylic acid [3-((S)-2-amino-4-ethyl-1-methyl-6-oxo-1,4,5,6-tetrahydro-pyrimidin-4-yl)-phenyl]-amide] | 95 nM

Other lines, results leading:

IC50 | SMILES
30 nM | CN1C(=O)C[C@@](C)(c2cccc(NC(=O)c3cccc(Cl)n3)c2)N=C1N [Example 31, 6-Chloro-pyridine-2-carboxylic acid [3-((S)-2-amino-1,4-dimethyl-6-oxo-1,4,5,6-tetrahydro-pyrimidin-4-yl)-phenyl]-amide]
10 nM | CN1C(=O)C[C@@](C)(c2cccc(NC(=O)c3ccc(C#N)cn3)c2)N=C1N [Example 15, 5-Cyano-pyridine-2-carboxylic acid [3-((S)-2-amino-1,4-dimethyl-6-oxo-1,4,5,6-tetrahydro-pyrimidin-4-yl)-phenyl]amide]
240 nM | CN1C(=O)C[C@@](C)(c2cccc(NC(=O)c3nccc4ccsc34)c2)N=C1N [Example 60, Thieno[2,3-c]pyridine-7-carboxylic acid [3-((S)-2-amino-1,4-dimethyl-6-oxo-1,4,5,6-tetrahydro-pyrimidin-4-yl)-phenyl]-amide]
17 nM | Cc1cc(Cl)cnc1C(=O)Nc1cccc([C@]2(C)CC(=O)N(C)C(N)=N2)c1 [Example 75, 5-Chloro-3-methyl-pyridine-2-carboxylic acid [3-((S)-2-amino-1,4-dimethyl-6-oxo-1,4,5,6-tetrahydro-pyrimidin-4-yl)-phenyl]-amide]
2100 nM | CN1C(=O)C[C@@](C)(c2cccc(NC(=O)c3ccccc3-c3ncc[nH]3)c2)N=C1N [Example 80, N-[3-((S)-2-Amino-1,4-dimethyl-6-oxo-1,4,5,6-tetrahydro-pyrimidin-4-yl)-phenyl]-2-(1H-imidazol-2-yl)-benzamide]
58 nM | CN1C(=O)C[C@@](C)(c2cccc(NC(=O)c3ccc(=O)[nH]n3)c2)N=C1N [Example 23, 6-Oxo-1,6-dihydro-pyridazine-3-carboxylic acid [3-((S)-2-amino-1,4-dimethyl-6-oxo-1,4,5,6-tetrahydro-pyrimidin-4-yl)-phenyl]amide]
18 nM | CN1C(=O)C[C@@](C)(c2cccc(NC(=O)c3ccc(F)cn3)c2)N=C1N [Example 27, 5-Fluoro-pyridine-2-carboxylic acid [3-((S)-2-amino-1,4-dimethyl-6-oxo-1,4,5,6-tetrahydro-pyrimidin-4-yl)-phenyl]amide]
102 nM | CN1C(=O)C[C@@](C)(c2cccc(NC(=O)c3cc4ccccc4s3)c2)N=C1N [Example 68, Benzo[b]thiophene-2-carboxylic acid [3-((S)-2-amino-1,4-dimethyl-6-oxo-1,4,5,6-tetrahydro-pyrimidin-4-yl)-phenyl]-amide]
1700 nM | CN1C(=O)C[C@@](C)(c2cccc(NC(=O)c3ccc4sccc4n3)c2)N=C1N [Example 59, Thieno[3,2-b]pyridine-5-carboxylic acid [3-((S)-2-amino-1,4-dimethyl-6-oxo-1,4,5,6-tetrahydro-pyrimidin-4-yl)-phenyl]-amide]
150 nM | Cc1ccnc(C(=O)Nc2cccc([C@]3(C)CC(=O)N(C)C(N)=N3)c2)c1 [Example 30, 4-Methyl-pyridine-2-carboxylic acid [3-((S)-2-amino-1,4-dimethyl-6-oxo-1,4,5,6-tetrahydro-pyrimidin-4-yl)-phenyl]-amide]
